Measurements published in ChEMBL document CHEMBL2417377, “Hit-to-lead optimization and kinase selectivity of imidazo[1,2-a]quinoxalin-4-amine derived JNK1 inhibitors” (Bioorg Med Chem Lett, 2013).

Columns and labels:
Details in all cases: PC-3
[1] = target: Protein kinase C beta type (Homo sapiens) (UniProt P05771); assay: Inhibition of PKCbeta in human PC3 cell lysates at 10 uM using desthiobiotin-tagged ATP probe AX9989 followed by trypsinization by LC/MS analysis
[2] = target: T1, Serine/threonine-protein kinase TAO1 (Homo sapiens) (UniProt Q7L7X3); assay: Inhibition of TAO1 in human PC3 cell lysates at 10 uM using desthiobiotin-tagged ATP probe AX9989 followed by trypsinization by LC/MS analysis
T1 sequence (whole entry): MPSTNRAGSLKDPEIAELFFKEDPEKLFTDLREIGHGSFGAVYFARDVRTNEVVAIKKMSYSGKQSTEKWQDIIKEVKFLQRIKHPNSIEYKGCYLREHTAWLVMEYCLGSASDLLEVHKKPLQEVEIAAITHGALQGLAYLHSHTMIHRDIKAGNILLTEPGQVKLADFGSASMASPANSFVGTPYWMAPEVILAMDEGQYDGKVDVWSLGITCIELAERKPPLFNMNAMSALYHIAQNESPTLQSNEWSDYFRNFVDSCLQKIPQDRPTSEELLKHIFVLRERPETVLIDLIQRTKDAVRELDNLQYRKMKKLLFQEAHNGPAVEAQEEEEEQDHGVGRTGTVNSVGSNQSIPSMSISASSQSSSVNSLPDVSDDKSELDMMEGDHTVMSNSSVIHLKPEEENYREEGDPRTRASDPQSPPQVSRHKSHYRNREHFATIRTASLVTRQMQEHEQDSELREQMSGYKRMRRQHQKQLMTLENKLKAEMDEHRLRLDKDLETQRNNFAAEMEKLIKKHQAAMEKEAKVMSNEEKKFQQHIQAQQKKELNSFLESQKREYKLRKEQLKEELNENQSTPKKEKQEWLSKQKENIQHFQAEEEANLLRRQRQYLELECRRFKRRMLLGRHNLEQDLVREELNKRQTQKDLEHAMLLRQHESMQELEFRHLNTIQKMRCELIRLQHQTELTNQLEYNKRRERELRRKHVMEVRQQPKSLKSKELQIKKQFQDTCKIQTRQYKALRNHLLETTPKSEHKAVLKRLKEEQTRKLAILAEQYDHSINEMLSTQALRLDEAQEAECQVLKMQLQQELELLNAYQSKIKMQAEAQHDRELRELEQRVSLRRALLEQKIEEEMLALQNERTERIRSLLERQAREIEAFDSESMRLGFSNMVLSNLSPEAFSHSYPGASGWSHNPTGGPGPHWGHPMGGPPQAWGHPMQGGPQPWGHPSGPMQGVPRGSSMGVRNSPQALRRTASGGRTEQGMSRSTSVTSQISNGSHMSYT

[3] = target: T2, Eukaryotic translation initiation factor 2-alpha kinase 3 (Homo sapiens) (UniProt Q9NZJ5); assay: Inhibition of PEK in human PC3 cell lysates at 10 uM using desthiobiotin-tagged ATP probe AX9989 followed by trypsinization by LC/MS analysis
T2 sequence (whole entry): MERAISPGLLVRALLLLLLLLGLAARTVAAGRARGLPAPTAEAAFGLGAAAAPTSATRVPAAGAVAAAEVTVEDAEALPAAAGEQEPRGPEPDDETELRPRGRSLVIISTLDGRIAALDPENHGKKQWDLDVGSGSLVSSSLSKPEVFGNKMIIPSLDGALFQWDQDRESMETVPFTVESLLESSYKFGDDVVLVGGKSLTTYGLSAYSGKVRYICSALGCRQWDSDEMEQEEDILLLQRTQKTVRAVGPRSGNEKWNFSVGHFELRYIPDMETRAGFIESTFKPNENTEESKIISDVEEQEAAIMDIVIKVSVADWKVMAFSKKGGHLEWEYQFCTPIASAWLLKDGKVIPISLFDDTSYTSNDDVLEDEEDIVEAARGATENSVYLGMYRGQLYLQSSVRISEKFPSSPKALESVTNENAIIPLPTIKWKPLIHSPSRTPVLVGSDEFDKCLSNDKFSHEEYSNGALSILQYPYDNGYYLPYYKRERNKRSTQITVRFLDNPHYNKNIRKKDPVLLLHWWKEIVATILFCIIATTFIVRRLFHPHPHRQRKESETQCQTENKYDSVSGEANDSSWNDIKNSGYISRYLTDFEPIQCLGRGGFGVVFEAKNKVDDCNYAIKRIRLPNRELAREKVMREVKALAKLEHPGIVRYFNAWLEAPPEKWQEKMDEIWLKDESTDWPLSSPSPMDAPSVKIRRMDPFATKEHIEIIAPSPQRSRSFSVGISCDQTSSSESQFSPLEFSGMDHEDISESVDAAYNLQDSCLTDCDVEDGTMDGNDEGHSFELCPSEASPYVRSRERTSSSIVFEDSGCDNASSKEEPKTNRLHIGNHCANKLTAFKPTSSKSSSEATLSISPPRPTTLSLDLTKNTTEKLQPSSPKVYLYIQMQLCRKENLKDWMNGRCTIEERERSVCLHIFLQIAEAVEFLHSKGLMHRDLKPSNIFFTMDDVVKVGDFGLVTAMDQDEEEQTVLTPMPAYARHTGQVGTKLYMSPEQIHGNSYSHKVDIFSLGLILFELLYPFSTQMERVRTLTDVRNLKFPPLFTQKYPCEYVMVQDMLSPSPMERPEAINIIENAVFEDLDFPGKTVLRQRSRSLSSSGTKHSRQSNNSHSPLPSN

[4] = target: Serine/threonine-protein kinase ATR (Homo sapiens) (UniProt Q13535); assay: Inhibition of ATR in human PC3 cell lysates at 10 uM using desthiobiotin-tagged ATP probe AX9989 followed by trypsinization by LC/MS analysis
Chain of Serine/threonine-protein kinase ATR (Homo sapiens) (Q13535 whole entry, looked up): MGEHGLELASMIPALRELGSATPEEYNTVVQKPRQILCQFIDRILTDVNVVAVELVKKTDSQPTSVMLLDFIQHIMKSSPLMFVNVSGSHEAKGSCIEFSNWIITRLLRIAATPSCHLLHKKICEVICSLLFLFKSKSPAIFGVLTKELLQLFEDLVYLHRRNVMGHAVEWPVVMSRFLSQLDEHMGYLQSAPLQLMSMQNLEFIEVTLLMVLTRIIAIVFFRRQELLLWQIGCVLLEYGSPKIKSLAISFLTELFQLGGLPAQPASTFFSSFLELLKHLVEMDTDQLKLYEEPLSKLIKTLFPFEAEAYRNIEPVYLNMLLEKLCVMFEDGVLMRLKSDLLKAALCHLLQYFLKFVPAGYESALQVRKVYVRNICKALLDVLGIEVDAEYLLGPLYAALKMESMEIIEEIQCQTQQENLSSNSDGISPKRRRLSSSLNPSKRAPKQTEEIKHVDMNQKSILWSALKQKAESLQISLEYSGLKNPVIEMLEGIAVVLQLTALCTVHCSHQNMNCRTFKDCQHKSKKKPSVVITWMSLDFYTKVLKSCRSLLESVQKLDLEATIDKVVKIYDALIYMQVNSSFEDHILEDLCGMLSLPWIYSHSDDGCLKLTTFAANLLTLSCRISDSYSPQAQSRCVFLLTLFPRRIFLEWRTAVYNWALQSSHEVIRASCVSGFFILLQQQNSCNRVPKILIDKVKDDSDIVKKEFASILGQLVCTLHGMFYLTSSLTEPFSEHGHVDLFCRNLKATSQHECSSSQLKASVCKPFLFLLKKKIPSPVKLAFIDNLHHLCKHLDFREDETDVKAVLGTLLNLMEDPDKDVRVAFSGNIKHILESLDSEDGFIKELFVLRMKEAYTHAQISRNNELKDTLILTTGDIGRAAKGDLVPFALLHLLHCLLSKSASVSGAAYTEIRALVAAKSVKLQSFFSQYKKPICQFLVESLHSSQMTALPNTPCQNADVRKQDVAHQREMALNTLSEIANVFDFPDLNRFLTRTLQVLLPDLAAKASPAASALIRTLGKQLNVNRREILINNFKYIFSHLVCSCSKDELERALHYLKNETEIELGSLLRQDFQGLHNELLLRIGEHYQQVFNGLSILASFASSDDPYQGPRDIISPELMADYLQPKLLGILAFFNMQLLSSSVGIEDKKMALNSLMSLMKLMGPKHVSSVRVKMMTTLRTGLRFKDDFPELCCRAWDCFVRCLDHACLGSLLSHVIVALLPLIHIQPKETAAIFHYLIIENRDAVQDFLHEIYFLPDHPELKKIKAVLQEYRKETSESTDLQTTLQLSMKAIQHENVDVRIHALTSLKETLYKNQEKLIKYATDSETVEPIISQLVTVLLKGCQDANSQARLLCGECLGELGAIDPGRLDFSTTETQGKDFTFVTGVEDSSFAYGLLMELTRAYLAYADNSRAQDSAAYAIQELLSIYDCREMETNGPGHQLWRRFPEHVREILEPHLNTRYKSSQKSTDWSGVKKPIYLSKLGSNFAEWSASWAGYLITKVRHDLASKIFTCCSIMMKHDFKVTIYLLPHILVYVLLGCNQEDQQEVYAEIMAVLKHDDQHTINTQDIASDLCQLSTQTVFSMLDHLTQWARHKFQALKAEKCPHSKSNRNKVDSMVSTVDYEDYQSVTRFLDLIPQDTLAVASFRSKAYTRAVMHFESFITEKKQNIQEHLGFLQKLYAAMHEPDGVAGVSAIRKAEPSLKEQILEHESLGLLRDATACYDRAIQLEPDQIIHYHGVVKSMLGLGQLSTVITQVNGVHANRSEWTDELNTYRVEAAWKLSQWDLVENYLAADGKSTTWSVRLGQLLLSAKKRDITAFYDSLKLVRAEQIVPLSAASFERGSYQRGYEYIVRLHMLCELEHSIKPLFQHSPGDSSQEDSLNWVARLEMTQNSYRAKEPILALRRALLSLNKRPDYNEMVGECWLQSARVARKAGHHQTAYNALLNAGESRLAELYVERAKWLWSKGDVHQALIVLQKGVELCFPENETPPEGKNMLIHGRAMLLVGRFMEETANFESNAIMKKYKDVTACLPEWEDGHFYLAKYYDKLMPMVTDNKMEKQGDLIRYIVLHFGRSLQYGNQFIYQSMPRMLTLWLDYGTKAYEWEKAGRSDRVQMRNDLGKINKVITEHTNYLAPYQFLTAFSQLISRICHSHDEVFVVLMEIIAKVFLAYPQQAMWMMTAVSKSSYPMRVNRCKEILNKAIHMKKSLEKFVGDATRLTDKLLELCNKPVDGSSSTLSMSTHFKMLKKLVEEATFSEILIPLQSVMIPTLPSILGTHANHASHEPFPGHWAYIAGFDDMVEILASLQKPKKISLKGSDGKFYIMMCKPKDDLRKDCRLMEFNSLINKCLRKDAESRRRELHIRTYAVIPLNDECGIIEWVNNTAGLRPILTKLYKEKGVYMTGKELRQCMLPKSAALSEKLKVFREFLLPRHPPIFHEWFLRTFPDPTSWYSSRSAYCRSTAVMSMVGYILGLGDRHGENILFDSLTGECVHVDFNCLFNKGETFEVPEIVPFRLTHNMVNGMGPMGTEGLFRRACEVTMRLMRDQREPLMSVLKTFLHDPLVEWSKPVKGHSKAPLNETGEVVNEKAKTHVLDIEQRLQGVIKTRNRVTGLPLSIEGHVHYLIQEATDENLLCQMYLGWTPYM

Chain of Protein kinase C beta type (Homo sapiens) (P05771 2-671 limits assumed): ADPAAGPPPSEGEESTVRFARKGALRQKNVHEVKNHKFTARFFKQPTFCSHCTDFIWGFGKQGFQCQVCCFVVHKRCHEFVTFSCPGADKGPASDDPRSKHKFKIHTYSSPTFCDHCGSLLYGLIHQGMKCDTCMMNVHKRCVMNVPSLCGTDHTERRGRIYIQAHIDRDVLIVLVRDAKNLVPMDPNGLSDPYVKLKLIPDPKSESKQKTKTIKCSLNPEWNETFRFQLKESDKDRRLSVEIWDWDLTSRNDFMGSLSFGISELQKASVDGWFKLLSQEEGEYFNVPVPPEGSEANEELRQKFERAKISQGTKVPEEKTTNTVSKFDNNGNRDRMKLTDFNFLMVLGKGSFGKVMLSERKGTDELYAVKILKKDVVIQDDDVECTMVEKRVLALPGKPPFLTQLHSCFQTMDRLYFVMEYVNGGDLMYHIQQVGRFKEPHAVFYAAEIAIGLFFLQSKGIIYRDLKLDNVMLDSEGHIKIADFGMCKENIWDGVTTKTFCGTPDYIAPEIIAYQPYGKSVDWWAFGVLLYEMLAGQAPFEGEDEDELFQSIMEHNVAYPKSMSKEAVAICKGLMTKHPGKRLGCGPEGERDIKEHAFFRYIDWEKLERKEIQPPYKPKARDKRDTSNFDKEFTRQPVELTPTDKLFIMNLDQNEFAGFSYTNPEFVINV

Structure (SMILES) | inhibition [1] | inhibition [2] | inhibition [3] | inhibition [4]
O=C(N[C@H](CO)c1ccccc1)c1ccc2nc(N[C@H]3CC[C@H](O)CC3)c3nccn3c2c1 | < 35% | < 35% | < 35% | < 35%
CC(C)(NC(=O)c1ccc2nc(N[C@H]3CC[C@H](O)CC3)c3nccn3c2c1)c1ccccc1 | < 35% | < 35% | < 35% | < 35%
O=C(NC1(Cc2ccc(F)cc2)CC1)c1ccc2nc(N[C@H]3CC[C@H](O)CC3)c3nccn3c2c1 | < 35% | < 35% | < 35% | < 35%
O=C(O)c1ccc2nc(N[C@H]3CC[C@H](O)CC3)c3nccn3c2c1 | < 35% | < 35% | 37.5% | < 35%
CCC[C@@H](NC(=O)c1ccc2nc(N[C@H]3CC[C@H](O)CC3)c3nccn3c2c1)c1ccccc1 | < 35% | < 35% | < 35% | < 35%
C[C@H](NC(=O)c1ccc2nc(N[C@H]3CC[C@H](O)CC3)c3nccn3c2c1)c1ccccc1 | < 35% | < 35% | < 35% | < 35%
O=C(NC1(c2ccccc2)CC1)c1ccc2nc(N[C@H]3CC[C@H](O)CC3)c3nccn3c2c1 | < 35% | < 35% | < 35% | < 35%
O=C(NC1(c2ccccc2)CCC1)c1ccc2nc(N[C@H]3CC[C@H](O)CC3)c3nccn3c2c1 | < 35% | < 35% | < 35% | < 35%
C[C@@H](NC(=O)c1ccc2nc(N[C@H]3CC[C@H](O)CC3)c3nccn3c2c1)c1ccccc1 | < 35% | < 35% | 38.4% | < 35%
O=C(NC1(c2ccc(F)cc2)CC1)c1ccc2nc(N[C@H]3CC[C@H](O)CC3)c3nccn3c2c1 | < 35% | < 35% | < 35% | < 35%
NC(=O)c1ccc2nc(N[C@H]3CC[C@H](O)CC3)c3nccn3c2c1 | < 35% | < 35% | < 35% | < 35%
CC[C@@H](NC(=O)c1ccc2nc(N[C@H]3CC[C@H](O)CC3)c3nccn3c2c1)c1ccccc1 | < 35% | < 35% | < 35% | < 35%
